Assay results from patent US20120009124A1, “USE OF BUFFERS FOR RADIONUCLIDE COMPLEXATION” (GUERBET, priority 2009, published 2012).
pIC50: −log10 of the molar value. Like-named read-outs stand apart in the source and are kept apart here. Where a SMILES comes first, the peptide text is derived from it. [ ]: non-standard residue; d: D form.

Assays:
CXCR4 = CXCR4 (Homo sapiens, UniProt P61073); experiment: IC50 of cyclic peptides for targeting CXCR4; format: binding; details: peptide biovectors for targeting CXCR4
CXCR4, sequence (P61073 whole entry, species assumed): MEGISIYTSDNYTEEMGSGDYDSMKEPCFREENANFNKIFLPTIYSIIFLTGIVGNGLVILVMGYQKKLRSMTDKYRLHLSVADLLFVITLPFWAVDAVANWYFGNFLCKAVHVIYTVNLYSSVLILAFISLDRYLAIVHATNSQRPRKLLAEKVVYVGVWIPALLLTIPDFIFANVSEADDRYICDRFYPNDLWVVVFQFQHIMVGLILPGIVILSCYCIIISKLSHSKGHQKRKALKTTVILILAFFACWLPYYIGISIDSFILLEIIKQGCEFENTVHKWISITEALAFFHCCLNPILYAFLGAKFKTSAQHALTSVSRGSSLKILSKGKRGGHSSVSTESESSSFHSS

[1] = Source text: It is also possible to combine several buffers in combination (buffer mixtures) in particular so as to optimize the buffering capacity ranges and the choice of the chelates and of the biovectors, it being specified that not all chelates necessarily have the same complexation, depending on the buffer under consideration.

With `N=C(N)NCCC[C@@H]1NC(=O)[C@H](CCCNC(=N)N)NC(=O)[C@@H](Cc2ccc(O)cc2)NC(=O)CNC(=O)[C@H](Cc2nc3ccccc3s2)NC1=O` [Bth] as the compound, how does the pIC50 (CXCR4) read?
Its pIC50 is 7.74.

With `N=C(N)NCCC[C@@H]1NC(=O)[C@H](CCCNC(=N)N)NC(=O)[C@@H](Cc2ccc(O)cc2)NC(=O)CNC(=O)[C@H](Cc2c[nH]c3ccccc23)NC1=O` [Trp] (cyclo([dY]RRWG)) as the compound, how does the pIC50 (CXCR4) read?
The pIC50 was 7.89.

With `O=C(O)O` [carbonate] as the compound, how does the “buffering capacity (pKa value +/-1)” value ([1]; pH range) read?
The value was 5.35-11.33.

Which “buffering capacity (pKa value +/-1)” value [1] does the source give for `O=C(O)C(O)C(O)C(=O)O` (centres unmarked) [tartrate] here?
The value was 2.04-5.37.

With phosphate as the compound, how does the “buffering capacity (pKa value +/-1)” value [1] read?
The value was 1.12-13.67.
